Biological target: BpIspF (Burkholderia pseudomallei, UniProt Q3JRA0)
Assay: biochemical
Type: binding

BpIspF, sequence (Q3JRA0 whole entry, looked up): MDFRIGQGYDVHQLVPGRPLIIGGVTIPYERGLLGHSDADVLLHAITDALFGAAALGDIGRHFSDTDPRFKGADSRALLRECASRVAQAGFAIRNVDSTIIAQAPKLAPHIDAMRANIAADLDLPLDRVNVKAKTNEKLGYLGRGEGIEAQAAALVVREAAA

## Oc1ccc(-n2ccnc2)cc1 [FOL955]
  Kd: > 500 µM
